Source: publication PMC8948984, “Diversified Chaetoglobosins from the Marine-Derived Fungus Emericellopsis sp. SCSIO41202” (Molecules, 2022)
Read-outs that look alike come from different tables or passages of the source.

Assays:
[1] = molecular target: acetylcholinesterase (AChE) (Homo sapiens, UniProt P22303); experiment: biochemical
Procedure: The inhibitory effects of 4–13 on AChE were measured in vitro in 96-well plates as previously described.

[2] = tested on: PC-3 cells; experiment: CCK-8 cytotoxicity assay, PC-3 cells; assay type: cell-based
Procedure: Compounds 4–13 were tested for their cytotoxicity against two prostatic carcinoma cell lines, PC-3 and 22Rv1, according to the reported CCK-8 (Dojindo) method. In brief, cells were seeded in a 96-well plate at the appropriate cell concentration and then incubated for 24 h at 37 °C in a 100% relative humidity, 5% CO2 incubator. Compounds to be tested were diluted to the appropriate concentration with culture medium, and the amount of each compound was adjusted to 25 μL before adding to the cells. Docetaxel (S1148, Selleck) was used as a positive control. The medium was aspirated, a fresh complete medium with 10% CCK-8 was added to incubate in a 37 °C incubator for 2-4 h, and the absorbance of the soultion at 450 nm was measured by an Envision 2104 multilabel reader (PerkinElmer). The inhibition rate was calculated by taking the absorbance at 650 nm as a reference.

[3] = in vitro, 96-well plates, read-out: AChE inhibitory activity IC50

acetylcholinesterase (AChE), sequence (P22303 32-614, species assumed): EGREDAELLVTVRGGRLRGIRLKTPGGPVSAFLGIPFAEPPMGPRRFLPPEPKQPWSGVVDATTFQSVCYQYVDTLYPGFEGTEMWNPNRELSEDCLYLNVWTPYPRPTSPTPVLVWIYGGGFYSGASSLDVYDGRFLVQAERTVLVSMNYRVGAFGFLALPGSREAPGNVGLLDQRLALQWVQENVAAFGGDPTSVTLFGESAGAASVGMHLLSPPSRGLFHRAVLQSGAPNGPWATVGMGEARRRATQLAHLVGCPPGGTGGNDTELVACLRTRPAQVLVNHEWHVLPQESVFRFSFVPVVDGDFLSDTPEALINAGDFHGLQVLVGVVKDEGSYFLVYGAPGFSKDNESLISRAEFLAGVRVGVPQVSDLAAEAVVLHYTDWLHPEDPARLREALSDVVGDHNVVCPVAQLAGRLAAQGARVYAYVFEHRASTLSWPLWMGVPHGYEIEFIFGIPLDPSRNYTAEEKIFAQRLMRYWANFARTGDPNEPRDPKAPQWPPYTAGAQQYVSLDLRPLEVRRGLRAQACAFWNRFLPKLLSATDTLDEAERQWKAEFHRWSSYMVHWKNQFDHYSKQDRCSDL

Row | Compound | IC50 [1, 3] | IC50 [1] | also measured
1 | CC1=C(C)[C@H]2[C@H](Cc3c[nH]c4ccccc34)NC(=O)[C@]23C(=O)CC[C@H](O)C(=O)/C(C)=C/[C@@H](C)C/C=C/[C@H]3[C@@H]1O [Compound 4, chaetoglobosin E] | 4.15 µM | – | –
2 | C=C1[C@@H](C)[C@H]2[C@H](Cc3c[nH]c4ccccc34)NC(=O)[C@]23C(=O)CC[C@H](O)C(=O)/C(C)=C/[C@@H](C)C/C=C/[C@H]3[C@@H]1O [Compound 5, chaetoglobosin Fex] | – | 31.7 µM | IC50 ([2]; Homo sapiens, PC-3, read-out: IC50 against PC-3 cells, prostatic carcinoma cell line PC-3, CCK-8, triplicate): 2.32 µM; IC50 ([2]; read-out: IC50 against PC-3 cells, prostatic carcinoma cell line PC-3, CCK-8, triplicate, listed as C5): 2.32 µM
3 | CC1=C(C)[C@H]2[C@H](Cc3c[nH]c4ccccc34)NC(=O)[C@]23C(=O)CCC(=O)C(=O)/C(C)=C/[C@@H](C)C/C=C/[C@H]3[C@@H]1O [Compound 6, chaetoglobosin G] | – | 8.71 µM | –
4 | CC1=C(O)C(=O)[C@H]2CC(=O)[C@@]34C(=O)N[C@@H](Cc5c[nH]c6ccccc56)[C@@H]3C(C)=C(C)[C@@H](O)[C@@H]4/C=C/C[C@H](C)[C@H]12 [Compound 8, chaetoglobosin V] | 1.31 µM | – | –
5 | CC1=C(O)C(=O)[C@@H]2CC(=O)[C@@]34C(=O)N[C@@H](Cc5c[nH]c6ccccc56)[C@@H]3C(C)=C(C)[C@@H](O)[C@@H]4/C=C/C[C@H](C)[C@@H]12 [Compound 9, chaetoglobosin Vb] | 23.7 µM | – | –
6 | CC(=O)O[C@@]12CO[C@@H]1C[C@H](O)[C@@]1(C)C(=O)[C@H](O)C3=C(C)[C@@H](OC(=O)[C@H](O)[C@@H](NC(=O)OC(C)(C)C)c4ccccc4)C[C@@](O)([C@@H](OC(=O)c4ccccc4)[C@H]21)C3(C)C [docetaxel, reference compound] | – | – | IC50 ([2]; Homo sapiens, prostatic carcinoma cell line PC-3, CCK-8, triplicate, read-out: IC50 against PC-3 cells): 0.12 µM
